The results in this text go back to ChEMBL document CHEMBL5543169, “Exploring Subsite Selectivity within Plasmodium vivax N-Myristoyltransferase Using Pyrazole-Derived Inhibitors” (J Med Chem, 2024).

A short description of experiment [1]: Inhibition of N-terminal 6His-tagged Plasmodium vivax NMT (27 to 410 residues) expressed in Escherichia coli Rosetta 2 (DE3) cells preincubated for 30 mins followed by myrCoA, PfARF and CPM addition by fluorescence based plate reader assay.
Experiment [2] is described as follows: Inhibition of Plasmodium vivax NMT.

The term IC50 denotes the concentration needed to halve the response being measured. Low readings indicate higher potency, high ones lower potency. Regarding `Cc1nn(C)c(C)c1CCOc1cccnc1-c1cccc(N2CCNCC2)c1`, the IC50 in experiment [1] was 0.0802 µM.
For `O=C(c1cccc(NCc2cc(-c3ccc(Cl)cc3)c[nH]c2=O)c1)N1CCOCC1`, the IC50 in experiment [2] came out at 3.4 µM.
`Cc1c(CCOc2ccc3ccccc3c2-c2ccnc(N3CCNCC3)c2)c(C(=O)Nc2cccnc2)nn1C` displayed an IC50 in experiment [1] of 1 µM.
Still for that read-out and setting: for `Cc1c(CCOc2ccc3ccccc3c2-c2ccnc(N3CCNCC3)c2)c(C(=O)NCC(N)=O)nn1C` the value was 5.07 µM.
